PubChem BioAssay AID248 (DTP/NCI, 2004)
Toxic doses and inconclusive results are not listed. No stated cut-off is given here; in the data, active means T/C of 150% or more; inactive means T/C below 125%.

System: L1210 leukemia ip in BDF1 mice, survival T/C
Test: NCI In Vivo Anticancer Drug Screen. Data for tumor model L1210 Leukemia (intraperitoneal) in B6D2F1 (BDF1) mice
Conditions: endpoint: mean survival time, higher = longer survival
How it was run: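 In this screen, tumor-bearing mice given compound are compared to those given vehicle, and their survival values are reported as a treated-to-control quotient.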

[1] = dose: 100.0 mg/kg/injection, schedule: Q01DX009 (ip), vehicle: Klucel (hydroxypropylcellulose) (HPC)
[2] = dose: 100.0 mg/kg/injection, schedule: Q04DX003 (ip), vehicle: Klucel (hydroxypropylcellulose) (HPC)
[3] = dose: 200.0 mg/kg/injection, schedule: Q01DX009 (ip), vehicle: Klucel (hydroxypropylcellulose) (HPC)
[4] = dose: 200.0 mg/kg/injection, schedule: Q04DX003 (ip), vehicle: Klucel (hydroxypropylcellulose) (HPC)
[5] = dose: 400.0 mg/kg/injection, schedule: Q04DX003 (ip), vehicle: Klucel (hydroxypropylcellulose) (HPC)
[6] = dose: 50.0 mg/kg/injection, schedule: Q01DX009 (ip), vehicle: saline
[7] = dose: 100.0 mg/kg/injection, schedule: Q04DX002 (ip), vehicle: Klucel (hydroxypropylcellulose) (HPC)
[8] = dose: 200.0 mg/kg/injection, schedule: Q04DX002 (ip), vehicle: Klucel (hydroxypropylcellulose) (HPC)
[9] = dose: 400.0 mg/kg/injection, schedule: Q04DX002 (ip), vehicle: Klucel (hydroxypropylcellulose) (HPC)
[10] = dose: 100.0 mg/kg/injection, schedule: Q04DX003 (ip), vehicle: saline with Tween-80
[11] = dose: 200.0 mg/kg/injection, schedule: Q04DX003 (ip), vehicle: saline with Tween-80
[12] = dose: 400.0 mg/kg/injection, schedule: Q01DX009 (ip), vehicle: Klucel (hydroxypropylcellulose) (HPC)
[13] = dose: 100.0 mg/kg/injection, schedule: Q01DX009 (ip), vehicle: saline
[14] = dose: 400.0 mg/kg/injection, schedule: Q04DX003 (ip), vehicle: saline with Tween-80

Measured: T/C

COc1cc(C(=O)CO)cc(OC)c1OC(C)=O
inactive: dose: 5.0 mg/kg/injection, schedule: Q01DX001 (ip), vehicle: saline 97 % of control | dose: 10.0 mg/kg/injection, schedule: Q01DX001 (ip), vehicle: saline 103 % of control | dose: 20.0 mg/kg/injection, schedule: Q01DX001 (ip), vehicle: saline 89 % of control | dose: 40.0 mg/kg/injection, schedule: Q01DX001 (ip), vehicle: saline 97 % of control | dose: 80.0 mg/kg/injection, schedule: Q01DX001 (ip), vehicle: saline 92 % of control

CCOC(C[N+](C)(C)C)OCC
inactive: dose: 50.0 mg/kg/injection, schedule: Q04DX003 (ip), vehicle: saline 93 % of control | dose: 100.0 mg/kg/injection, schedule: Q04DX003 (ip), vehicle: saline 97 % of control | dose: 200.0 mg/kg/injection, schedule: Q04DX003 (ip), vehicle: saline 101 % of control

[Br][Pb]([Br])([c]1ccccc1)[c]1ccccc1
inactive: [1] 117 % of control | [2] 91 % of control | [3] 98 % of control | [4] 100 % of control | [5] 94 % of control

O=S(=O)(CCS(=O)(=O)c1ccccc1)c1ccccc1
inactive: [6] 94 % of control | [7] 92 % of control | dose: 150.0 mg/kg/injection, schedule: Q01DX009 (ip), vehicle: saline 97 % of control | [8] 92 % of control | [9] 88 % of control

CCCNS(=O)(=O)c1ccc(Cl)c([N+](=O)[O-])c1
inactive: dose: 12.5 mg/kg/injection, schedule: Q04DX003 (ip), vehicle: Klucel (hydroxypropylcellulose) (HPC) 100 % of control | dose: 25.0 mg/kg/injection, schedule: Q04DX003 (ip), vehicle: Klucel (hydroxypropylcellulose) (HPC) 97 % of control | dose: 50.0 mg/kg/injection, schedule: Q04DX003 (ip), vehicle: Klucel (hydroxypropylcellulose) (HPC) 100 % of control | [2] 98 % of control | [4] 103 % of control

CCCc1ccc(OCC=C(C)C)cc1
inactive: dose: 50.0 mg/kg/injection, schedule: Q04DX002 (ip), vehicle: saline with Tween-80 100 % of control | dose: 100.0 mg/kg/injection, schedule: Q04DX002 (ip), vehicle: saline with Tween-80 100 % of control

CCN(CC)c1ccc(NC(=O)NC(C)C)cc1
inactive: dose: 50.0 mg/kg/injection, schedule: Q01DX009 (ip), vehicle: saline with Tween-80 101 % of control | dose: 100.0 mg/kg/injection, schedule: Q01DX009 (ip), vehicle: saline with Tween-80 108 % of control | [10] 105 % of control | dose: 200.0 mg/kg/injection, schedule: Q01DX009 (ip), vehicle: saline with Tween-80 97 % of control | [11] 103 % of control

COC(=O)C1=COC(C)C2CN3CCc4c([nH]c5cc(OC)ccc45)C3CC12 (stereo not drawn)
inactive: dose: 22.0 mg/kg/injection, schedule: Q01DX Z (ip), vehicle: other 100 % of control | dose: 44.0 mg/kg/injection, schedule: Q01DX Z (ip), vehicle: other 86 % of control

O=C(O)C1C2OC3C(OC(=O)C31)C2Cl (stereo not drawn)
inactive: [7] 95 % of control | [8] 92 % of control | [9] 92 % of control

O/N=C1\CCCC\C1=N/O.O/N=C1\CCCC\C1=N/O.[Pd]
inactive: dose: 100.0 mg/kg/injection, schedule: Q01DX009 (ip), vehicle: other 94 % of control | dose: 100.0 mg/kg/injection, schedule: Q04DX003 (ip), vehicle: other 102 % of control | dose: 200.0 mg/kg/injection, schedule: Q01DX009 (ip), vehicle: other 107 % of control | dose: 200.0 mg/kg/injection, schedule: Q04DX003 (ip), vehicle: other 98 % of control | dose: 400.0 mg/kg/injection, schedule: Q01DX009 (ip), vehicle: other 91 % of control | dose: 400.0 mg/kg/injection, schedule: Q04DX003 (ip), vehicle: other 90 % of control

Cc1ccc(C)c(-n2c(C)nc3ccccc3c2=O)c1
inactive: [1] 86 % of control | [3] 100 % of control | [12] 91 % of control

O=C(Nc1ccc(Cl)cc1)C(O)C(O)C(O)C(O)CO (stereo not drawn)
inactive: [6] 100 % of control | [13] 103 % of control | dose: 200.0 mg/kg/injection, schedule: Q01DX009 (ip), vehicle: saline 100 % of control

O=C(/C=C(\c1ccccc1)C1C2C=CC(C2)C1c1ccccc1)c1ccccc1 (stereo not drawn)
inactive: dose: 100.0 mg/kg/injection, schedule: Q01DX001 (ip), vehicle: saline with Tween-80 97 % of control | dose: 200.0 mg/kg/injection, schedule: Q01DX001 (ip), vehicle: saline with Tween-80 95 % of control | dose: 400.0 mg/kg/injection, schedule: Q01DX001 (ip), vehicle: saline with Tween-80 96 % of control

CCCCCC(CN(C)C)C(=O)/C=C/c1ccc(Cl)c(Cl)c1 (stereo not drawn)
inactive: dose: 12.5 mg/kg/injection, schedule: Q04DX003 (ip), vehicle: acetone 95 % of control | dose: 25.0 mg/kg/injection, schedule: Q04DX003 (ip), vehicle: acetone 92 % of control

COc1ccccc1NC(=O)NCc1ccco1
inactive: dose: 77.0 mg/kg/injection, schedule: Q01DX Z (ip), vehicle: methylcellulose (MC) 90 % of control | dose: 116.0 mg/kg/injection, schedule: Q01DX Z (ip), vehicle: methylcellulose (MC) 103 % of control | dose: 175.0 mg/kg/injection, schedule: Q01DX Z (ip), vehicle: methylcellulose (MC) 105 % of control

CN(C)C(=O)Sc1cccc([N+](=O)[O-])c1
inactive: [10] 109 % of control | [11] 111 % of control | [14] 103 % of control

CC(=O)Nc1ccc(NC(=O)/C=C/c2ccccc2)cc1
inactive: [1] 103 % of control | [3] 95 % of control | [12] 105 % of control

CCOC(=O)Nc1ccccc1C
inactive: [2] 95 % of control | [4] 100 % of control | dose: 222.0 mg/kg/injection, schedule: Q01DX Z (ip), vehicle: methylcellulose (MC) 101 % of control | dose: 333.0 mg/kg/injection, schedule: Q01DX Z (ip), vehicle: methylcellulose (MC) 101 % of control | [5] 94 % of control

COc1ccc2nonc2c1
inactive: dose: 100.0 mg/kg/injection, schedule: Q01DX001 (ip), vehicle: other 100 % of control | dose: 200.0 mg/kg/injection, schedule: Q01DX001 (ip), vehicle: other 110 % of control

CCCCCCC(C)OC(=O)CCCc1ccc(N(CCCl)CCCl)cc1 (stereo not drawn)
inactive: [6] 122 % of control | [13] 116 % of control | dose: 400.0 mg/kg/injection, schedule: Q01DX009 (ip), vehicle: saline 100 % of control

CCOC(=O)NC(C)(C)CN(C(=O)OCC)C(C)C
inactive: [10] 97 % of control | [11] 101 % of control | [14] 117 % of control

CCSC(C(Nc1ccc([N+](=O)[O-])cc1[N+](=O)[O-])C(O)C(O)C(O)CO)n1cc(C)c(=O)[nH]c1=O (stereo not drawn)
inactive: dose: 50.0 mg/kg/injection, schedule: Q01DX001 (ip), vehicle: saline 97 % of control | dose: 100.0 mg/kg/injection, schedule: Q01DX001 (ip), vehicle: saline 100 % of control | dose: 200.0 mg/kg/injection, schedule: Q01DX001 (ip), vehicle: saline 100 % of control | dose: 400.0 mg/kg/injection, schedule: Q01DX001 (ip), vehicle: saline 100 % of control
